Patent US20080033274A1, “Device and Method for Monitoring the Functioning of the Lower Esophageal Sphincter” (Altana Pharma AG, priority 2004, published 2008)

System: transient lower esophageal sphincter relaxations (TLESRs) in the conscious dog
Test: Number of TLESRs (hydrogen marker gas eructations) in gastric fistula dog under barostat gastric pressure
Type: in vivo
Conditions: 7 μmol/kg i.v., 12 mm Hg to the stomach
Text: The various aspects of the invention were studied with fistula dogs. The fistula is inserted into the stomach of the dog by methods known to the expert, for example as described in Postius S, Braeuer U. Loss of circadian rhythm in luminal acidity of canine stomach by implantation of a gastric fistula. Digestion. 1995; 56(1):3540.
The method according to the invention was used to quantify the number of transient lower esophageal sphincter relaxations (TLESRs, leading to gas refluxes) in the conscious dog, which are provoked by the introduction of hydrogen gas in the stomach. The method can be used with fasted or fed animals and it is not depending on the status of gastric acid secretion.
For the assessment of TLESRs, the gastric fistula dogs were temporarily connected via the gastric fistula to a barostat which continuously measures the gastric pressure and continuously approximates during the monitoring of the marker gas a target pressure by sucking or pumping a gas mixture of air and hydrogen, comprising 0.2-3% hydrogen, whereby 3% of hydrogen was yielding the highest sensitivity.
A target pressure was selected that causes an appropriate number of TLESRs, usually for a period of 30 min. […] The quantification of TLESRs resulting in eructations was performed by continuous collection of the gas in front of and in the middle of nose and mouth of the dog with an open measuring probe head. This gas, comprising hydrogen from the gastric gas mixture, which eructed if the dog is belching, was sucked to a hydrogen sensor (Model used: UST 2330, UST—Umweltsensortechnik GmbH, 98716 Geschwenda, Germany) registering the hydrogen concentration. Significant enhancement in hydrogen concentration in the collected gas was defined to represent a TLESR caused by an eruction. […] Some eructions occurred at 6 mm Hg and lots were measured above 12 mm Hg. However, above 12-14 mm Hg vomiting might be induced as well.
The study design was as follows: […]
0-30 minutes: detection of the number of TLESR by monitoring the concentration of hydrogen detected in the sensor […]

NCC(CC(=O)O)c1ccc(Cl)cc1 (stereo not drawn) [Baclofen]
Number of TLESR detected in the time period indicated (time period 0-10 minutes): 0.75
Number of TLESR detected in the time period indicated (time period 10-20 minutes): 0.25
Number of TLESR detected in the time period indicated (time period 20-30 minutes): 1.75
